In PubChem BioAssay (NCI):
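Compound exposure: 48 hours, 5 concentrations, 96-well plates. TGI is the concentration that stops growth completely.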

Columns and labels:
Assay in all cases: growth of human tumour cells (NCI), 48 h
786-0 renal = system: 786-0 renal
A498 renal = system: A498 renal
A549 NSCLC = system: A549 NSCLC
ACHN renal = system: ACHN renal
BT-549 breast = system: BT-549 breast
CAKI-1 renal = system: CAKI-1 renal
CCRF-CEM leukemia = system: CCRF-CEM leukemia
COLO 205 colon = system: COLO 205 colon
DU-145 prostate = system: DU-145 prostate
EKVX NSCLC = system: EKVX NSCLC
HCC-2998 colon = system: HCC-2998 colon
HCT-116 colon = system: HCT-116 colon
HCT-15 colon = system: HCT-15 colon
HOP-62 NSCLC = system: HOP-62 NSCLC
HOP-92 NSCLC = system: HOP-92 NSCLC
HS 578T breast = system: HS 578T breast
HT29 colon = system: HT29 colon
IGROV1 ovarian = system: IGROV1 ovarian
K-562 leukemia = system: K-562 leukemia
KM12 colon = system: KM12 colon
LOX IMVI melanoma = system: LOX IMVI melanoma
M14 melanoma = system: M14 melanoma
MALME-3M melanoma = system: MALME-3M melanoma
MCF7 breast = system: MCF7 breast
MDA-MB-231 breast = system: MDA-MB-231 breast
MDA-MB-435 = system: MDA-MB-435
MDA-N = system: MDA-N
MOLT-4 leukemia = system: MOLT-4 leukemia
NCI-H226 lung = system: NCI-H226 lung
NCI-H23 lung = system: NCI-H23 lung
NCI-H460 lung = system: NCI-H460 lung
NCI-H522 lung = system: NCI-H522 lung
NCI/ADR-RES ovarian = system: NCI/ADR-RES ovarian
OVCAR-3 ovarian = system: OVCAR-3 ovarian
OVCAR-4 ovarian = system: OVCAR-4 ovarian
OVCAR-5 ovarian = system: OVCAR-5 ovarian
OVCAR-8 ovarian = system: OVCAR-8 ovarian
PC-3 prostate = system: PC-3 prostate
RPMI-8226 leukemia = system: RPMI-8226 leukemia
RXF 393 renal = system: RXF 393 renal
SF-268 CNS = system: SF-268 CNS
SF-295 CNS = system: SF-295 CNS
SF-539 CNS = system: SF-539 CNS
SK-MEL-2 melanoma = system: SK-MEL-2 melanoma
SK-MEL-28 melanoma = system: SK-MEL-28 melanoma
SK-MEL-5 melanoma = system: SK-MEL-5 melanoma
SK-OV-3 ovarian = system: SK-OV-3 ovarian
SN12C renal = system: SN12C renal
SNB-19 CNS = system: SNB-19 CNS
SNB-75 CNS = system: SNB-75 CNS
SR leukemia = system: SR leukemia
SW-620 colon = system: SW-620 colon
T-47D breast = system: T-47D breast
TK-10 renal = system: TK-10 renal
U251 CNS = system: U251 CNS
UACC-257 melanoma = system: UACC-257 melanoma
UACC-62 melanoma = system: UACC-62 melanoma
UO-31 renal = system: UO-31 renal
HL-60(TB) leukemia = system: HL-60(TB) leukemia

In the case of `CSCCC(NC(=O)OC(C)(C)C)C(=O)NCCNc1ccc(NCCNC(=O)C(CCSC)NC(=O)OC(C)(C)C)c2c1C(=O)c1ccccc1C2=O` (stereo not given), the TGI (786-0 renal) is reported as 12.8 µM, the TGI (A498 renal) is reported as 21.1 µM and the TGI (A549 NSCLC) is reported as 7.93 µM. The TGI (ACHN renal) was 30.3 µM, the TGI (BT-549 breast) was 9.59 µM and the TGI (CAKI-1 renal) was > 41.5 µM. For the same molecule, the TGI (CCRF-CEM leukemia) was > 38 µM, the TGI (COLO 205 colon) was 5.41 µM and the TGI (DU-145 prostate) was 33.2 µM. For the same molecule, the TGI (EKVX NSCLC) was > 27.7 µM, the TGI (HCC-2998 colon) was 5.99 µM and the TGI (HCT-116 colon) was > 29.6 µM. For the same molecule, the TGI (HCT-15 colon) was > 100 µM, the TGI (HOP-62 NSCLC) was 8.2 µM and the TGI (HOP-92 NSCLC) was 10.1 µM. It also gave a TGI (HS 578T breast) of 31.2 µM, a TGI (HT29 colon) of 7.51 µM and a TGI (IGROV1 ovarian) of 9.85 µM. For the same molecule, the TGI (K-562 leukemia) was > 32.7 µM, the TGI (KM12 colon) was > 63.6 µM and the TGI (LOX IMVI melanoma) was 22.8 µM. For the same molecule, the TGI (M14 melanoma) was 14.1 µM, the TGI (MALME-3M melanoma) was 9.35 µM and the TGI (MCF7 breast) was 19.2 µM. For the same molecule, the TGI (MDA-MB-231 breast) was 8.54 µM, the TGI (MDA-MB-435) was 7.49 µM and the TGI (MDA-N) was 7.03 µM. It also gave a TGI (MOLT-4 leukemia) of 11.5 µM, a TGI (NCI-H226 lung) of 19.7 µM and a TGI (NCI-H23 lung) of 15.9 µM. The TGI (NCI-H460 lung) was 23.1 µM, the TGI (NCI-H522 lung) was 3.38 µM and the TGI (NCI/ADR-RES ovarian) was > 100 µM. For the same molecule, the TGI (OVCAR-3 ovarian) was 15.6 µM, the TGI (OVCAR-4 ovarian) was 24.8 µM and the TGI (OVCAR-5 ovarian) was 17.2 µM. It also gave a TGI (OVCAR-8 ovarian) of 5.4 µM, a TGI (PC-3 prostate) of 17.7 µM and a TGI (RPMI-8226 leukemia) of 12.2 µM. The TGI (RXF 393 renal) was 52.8 µM, the TGI (SF-268 CNS) was 18.7 µM and the TGI (SF-295 CNS) was 21.1 µM. The TGI (SF-539 CNS) was 6.96 µM, the TGI (SK-MEL-2 melanoma) was 35.9 µM and the TGI (SK-MEL-28 melanoma) was 3.69 µM. The TGI (SK-MEL-5 melanoma) was 13.2 µM, the TGI (SK-OV-3 ovarian) was 32.9 µM and the TGI (SN12C renal) was 21 µM. It also gave a TGI (SNB-19 CNS) of 16.6 µM, a TGI (SNB-75 CNS) of 8.54 µM and a TGI (SR leukemia) of 11.3 µM. The TGI (SW-620 colon) was 7.3 µM, the TGI (T-47D breast) was 12.1 µM and the TGI (TK-10 renal) was 15.1 µM. For the same molecule, the TGI (U251 CNS) was 10.6 µM, the TGI (UACC-257 melanoma) was 12.1 µM and the TGI (UACC-62 melanoma) was 14.4 µM. The TGI (UO-31 renal) was > 100 µM.

For `O=C(/C=C/c1ccc([N+](=O)[O-])cc1)c1nc2ccccc2[nH]1`, the TGI (786-0 renal) was > 100 µM, the TGI (A498 renal) was 3.99 µM and the TGI (A549 NSCLC) was > 100 µM. For the same molecule, the TGI (ACHN renal) was > 100 µM, the TGI (BT-549 breast) was > 100 µM and the TGI (CAKI-1 renal) was > 100 µM. The TGI (CCRF-CEM leukemia) was > 100 µM, the TGI (COLO 205 colon) was > 100 µM and the TGI (DU-145 prostate) was > 100 µM. The TGI (EKVX NSCLC) was > 100 µM, the TGI (HCT-116 colon) was > 38.7 µM and the TGI (HCT-15 colon) was > 100 µM. The TGI (HL-60(TB) leukemia) was > 29.9 µM, the TGI (HOP-62 NSCLC) was > 100 µM and the TGI (HOP-92 NSCLC) was > 100 µM. For the same molecule, the TGI (HS 578T breast) was > 100 µM, the TGI (HT29 colon) was > 100 µM and the TGI (IGROV1 ovarian) was 17.9 µM. For the same molecule, the TGI (K-562 leukemia) was > 61.5 µM, the TGI (KM12 colon) was > 100 µM and the TGI (LOX IMVI melanoma) was > 100 µM. The TGI (M14 melanoma) was > 100 µM, the TGI (MALME-3M melanoma) was > 100 µM and the TGI (MCF7 breast) was > 100 µM. For the same molecule, the TGI (MDA-MB-231 breast) was > 57.2 µM, the TGI (MDA-MB-435) was > 100 µM and the TGI (MDA-N) was > 100 µM. For the same molecule, the TGI (MOLT-4 leukemia) was 99.7 µM, the TGI (NCI-H226 lung) was 4.39 µM and the TGI (NCI-H460 lung) was > 100 µM. The TGI (NCI-H522 lung) was > 100 µM, the TGI (NCI/ADR-RES ovarian) was > 100 µM and the TGI (OVCAR-3 ovarian) was > 78.1 µM. The TGI (OVCAR-4 ovarian) was > 100 µM, the TGI (OVCAR-5 ovarian) was 24.1 µM and the TGI (OVCAR-8 ovarian) was > 100 µM. The TGI (PC-3 prostate) was > 100 µM, the TGI (RPMI-8226 leukemia) was 33.3 µM and the TGI (RXF 393 renal) was > 100 µM. For the same molecule, the TGI (SF-268 CNS) was > 100 µM, the TGI (SF-295 CNS) was > 100 µM and the TGI (SF-539 CNS) was > 73.6 µM. For the same molecule, the TGI (SK-MEL-2 melanoma) was > 100 µM, the TGI (SK-MEL-28 melanoma) was > 100 µM and the TGI (SK-MEL-5 melanoma) was > 100 µM. The TGI (SK-OV-3 ovarian) was > 100 µM, the TGI (SN12C renal) was > 100 µM and the TGI (SNB-19 CNS) was > 100 µM. For the same molecule, the TGI (SNB-75 CNS) was > 100 µM, the TGI (SR leukemia) was 11.3 µM and the TGI (SW-620 colon) was > 100 µM. For the same molecule, the TGI (T-47D breast) was > 84.8 µM, the TGI (TK-10 renal) was > 37.8 µM and the TGI (U251 CNS) was > 100 µM. For the same molecule, the TGI (UACC-257 melanoma) was 31.4 µM, the TGI (UACC-62 melanoma) was 63 µM and the TGI (UO-31 renal) was > 100 µM.
